# ChEMBL document CHEMBL1201862, “PubChem BioAssay data set” (2004)
#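 Method: 48-hour compound exposure of cells in 96-well plates, five concentrations, linear interpolation of endpoints. GI50: concentration for 50% inhibition of growth.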 Activity calls are given as the source filed them. Rule as the data show it: active = GI50 up to about 1.1 µM and inactive = higher.
# Tests used:
# Experiment in all cases: DTP human tumour cell line panel, 48 h
# [1] = test system: 786-0
# [2] = test system: A498
# [3] = test system: A549
# [4] = test system: ACHN
# [5] = test system: BT-549
# [6] = test system: CAKI-1
# [7] = test system: CCRF-CEM
# [8] = test system: COLO 205
# [9] = test system: DU-145
# [10] = test system: EKVX
# [11] = test system: HCC 2998
# [12] = test system: HCT-116
# [13] = test system: HCT-15
# [14] = test system: HL-60
# [15] = test system: HOP-62
# [16] = test system: HOP-92
# [17] = test system: HT-29
# [18] = test system: Hs-578T
# [19] = test system: IGROV-1
# [20] = test system: K562
# [21] = test system: KM12
# [22] = test system: LOX IMVI
# [23] = test system: M14
# [24] = test system: MCF7
# [25] = test system: MDA-MB-231
# [26] = test system: MDA-MB-435
# [27] = test system: MDA-N
# [28] = test system: MOLT-4
# [29] = test system: Malme-3M
# [30] = test system: NCI-H226
# [31] = test system: NCI-H23
# [32] = test system: NCI-H460
# [33] = test system: NCI-H522
# [34] = test system: NCI/ADR-RES
# [35] = test system: OVCAR-3
# [36] = test system: OVCAR-4
# [37] = test system: OVCAR-5
# [38] = test system: OVCAR-8
# [39] = test system: PC-3
# [40] = test system: RPMI-8226
# [41] = test system: RXF 393
# [42] = test system: SF-268
# [43] = test system: SF-295
# [44] = test system: SF-539
# [45] = test system: SK-MEL-28
# [46] = test system: SK-MEL-2
# [47] = test system: SK-MEL-5
# [48] = test system: SK-OV-3
# [49] = test system: SN12C
# [50] = test system: SNB-19
# [51] = test system: SNB-75
# [52] = test system: SR
# [53] = test system: SW-620
# [54] = test system: T47D
# [55] = test system: TK-10
# [56] = test system: U-251
# [57] = test system: UACC-257
# [58] = test system: UACC-62
# [59] = test system: UO-31
smiles,measurement,setting,value
CCN(CC)c1c(N(CC)CC)c(=O)c1=O,GI50,[1],5.35 µM (inactive)
same,GI50,[2],22.6 µM (inactive)
same,GI50,[3],22.5 µM (inactive)
same,GI50,[4],3.18 µM (inactive)
same,GI50,[5],19.1 µM (inactive)
same,GI50,[6],4.27 µM (inactive)
same,GI50,[7],3.53 µM (inactive)
same,GI50,[8],2.63 µM (inactive)
same,GI50,[9],9.31 µM (inactive)
same,GI50,[10],14.9 µM (inactive)
same,GI50,[11],20.3 µM (inactive)
same,GI50,[12],8.07 µM (inactive)
same,GI50,[13],3.67 µM
same,GI50,[14],2.23 µM (inactive)
same,GI50,[15],29.9 µM (inactive)
same,GI50,[16],3.94 µM (inactive)
same,GI50,[17],2.42 µM (inactive)
same,GI50,[18],21.7 µM (inactive)
same,GI50,[19],2.81 µM (inactive)
same,GI50,[20],6.12 µM (inactive)
same,GI50,[21],22.6 µM (inactive)
same,GI50,[22],11.8 µM (inactive)
same,GI50,[23],16.7 µM (inactive)
same,GI50,[24],11.2 µM (inactive)
same,GI50,[25],7.55 µM (inactive)
same,GI50,[26],20.7 µM (inactive)
same,GI50,[27],16.3 µM (inactive)
same,GI50,[28],3.1 µM (inactive)
same,GI50,[29],3.25 µM (inactive)
same,GI50,[30],17.2 µM (inactive)
same,GI50,[31],10.6 µM (inactive)
same,GI50,[32],39.5 µM (inactive)
same,GI50,[33],2.14 µM (inactive)
same,GI50,[34],24.4 µM (inactive)
same,GI50,[35],9.71 µM (inactive)
same,GI50,[36],18.9 µM (inactive)
same,GI50,[37],18 µM (inactive)
same,GI50,[38],10.3 µM (inactive)
same,GI50,[39],17.9 µM (inactive)
same,GI50,[40],1.88 µM (inactive)
same,GI50,[41],11.3 µM (inactive)
same,GI50,[42],26.1 µM (inactive)
same,GI50,[43],> 88.9 µM (inactive)
same,GI50,[44],8.05 µM (inactive)
same,GI50,[45],17.4 µM (inactive)
same,GI50,[46],22.5 µM (inactive)
same,GI50,[47],17.4 µM (inactive)
same,GI50,[48],> 100 µM (inactive)
same,GI50,[49],9.1 µM (inactive)
same,GI50,[50],> 63.8 µM (inactive)
same,GI50,[51],30.3 µM (inactive)
same,GI50,[52],24.8 µM (inactive)
same,GI50,[53],4.16 µM (inactive)
same,GI50,[54],3.18 µM (inactive)
same,GI50,[55],2.82 µM (inactive)
same,GI50,[56],22.9 µM (inactive)
same,GI50,[57],9.48 µM (inactive)
same,GI50,[58],18.2 µM (inactive)
same,GI50,[59],5.32 µM (inactive)
COc1cccc(C(=O)C(O)c2cccc(OC)c2OC)c1OC (stereo not given),GI50,[1],> 100 µM (inactive)
same,GI50,[2],> 100 µM (inactive)
same,GI50,[3],> 100 µM (inactive)
same,GI50,[4],> 100 µM (inactive)
same,GI50,[5],> 100 µM (inactive)
same,GI50,[6],> 100 µM (inactive)
same,GI50,[7],> 100 µM (inactive)
same,GI50,[8],> 100 µM (inactive)
same,GI50,[9],> 100 µM (inactive)
same,GI50,[10],> 100 µM (inactive)
same,GI50,[11],> 100 µM (inactive)
same,GI50,[12],> 100 µM (inactive)
same,GI50,[13],> 100 µM
same,GI50,[14],> 100 µM (inactive)
same,GI50,[15],> 100 µM (inactive)
same,GI50,[16],> 100 µM (inactive)
same,GI50,[17],> 100 µM (inactive)
same,GI50,[18],> 100 µM (inactive)
same,GI50,[19],> 100 µM (inactive)
same,GI50,[21],> 100 µM (inactive)
same,GI50,[22],> 100 µM (inactive)
same,GI50,[23],> 100 µM (inactive)
same,GI50,[24],> 100 µM (inactive)
same,GI50,[25],> 100 µM (inactive)
same,GI50,[26],> 100 µM (inactive)
same,GI50,[27],> 100 µM (inactive)
same,GI50,[28],> 100 µM (inactive)
same,GI50,[29],> 100 µM (inactive)
same,GI50,[30],> 100 µM (inactive)
same,GI50,[31],> 100 µM (inactive)
same,GI50,[32],> 100 µM (inactive)
same,GI50,[33],> 100 µM (inactive)
same,GI50,[34],> 100 µM (inactive)
same,GI50,[35],> 100 µM (inactive)
same,GI50,[36],> 100 µM (inactive)
same,GI50,[37],> 100 µM (inactive)
same,GI50,[38],> 100 µM (inactive)
same,GI50,[39],> 100 µM (inactive)
same,GI50,[40],> 100 µM (inactive)
same,GI50,[41],> 100 µM (inactive)
same,GI50,[42],> 100 µM (inactive)
same,GI50,[43],> 100 µM (inactive)
same,GI50,[44],> 100 µM (inactive)
same,GI50,[45],> 100 µM (inactive)
same,GI50,[46],> 100 µM (inactive)
same,GI50,[47],> 100 µM (inactive)
same,GI50,[48],> 100 µM (inactive)
same,GI50,[49],> 100 µM (inactive)
same,GI50,[50],> 100 µM (inactive)
same,GI50,[51],> 100 µM (inactive)
same,GI50,[52],> 100 µM (inactive)
same,GI50,[53],> 100 µM (inactive)
same,GI50,[54],> 100 µM (inactive)
same,GI50,[55],> 100 µM (inactive)
same,GI50,[56],> 100 µM (inactive)
same,GI50,[57],> 100 µM (inactive)
same,GI50,[58],> 100 µM (inactive)
same,GI50,[59],> 100 µM (inactive)
COC(=O)c1cc(C)ccc1CC(Cc1cccc(C)c1)C(=O)OC (stereo not given),GI50,[1],> 100 µM (inactive)
same,GI50,[2],> 100 µM (inactive)
same,GI50,[3],> 100 µM (inactive)
same,GI50,[4],> 100 µM (inactive)
same,GI50,[5],> 100 µM (inactive)
same,GI50,[6],> 100 µM (inactive)
same,GI50,[7],46.2 µM (inactive)
same,GI50,[8],> 100 µM (inactive)
same,GI50,[9],92.9 µM (inactive)
same,GI50,[10],59.2 µM (inactive)
same,GI50,[11],> 100 µM (inactive)
same,GI50,[12],80.7 µM (inactive)
same,GI50,[13],> 100 µM
same,GI50,[14],34.7 µM (inactive)
same,GI50,[15],> 100 µM (inactive)
same,GI50,[16],25.8 µM (inactive)
same,GI50,[17],50.6 µM (inactive)
same,GI50,[18],> 100 µM (inactive)
same,GI50,[19],> 100 µM (inactive)
same,GI50,[20],45.7 µM (inactive)
same,GI50,[21],> 100 µM (inactive)
same,GI50,[22],> 100 µM (inactive)
same,GI50,[23],> 100 µM (inactive)
same,GI50,[24],> 100 µM (inactive)
same,GI50,[25],> 100 µM (inactive)
same,GI50,[26],> 100 µM (inactive)
same,GI50,[27],> 100 µM (inactive)
same,GI50,[28],23.4 µM (inactive)
same,GI50,[29],> 100 µM (inactive)
same,GI50,[30],> 100 µM (inactive)
same,GI50,[31],38.5 µM (inactive)
same,GI50,[32],> 100 µM (inactive)
same,GI50,[33],74.6 µM (inactive)
same,GI50,[34],95.9 µM (inactive)
same,GI50,[35],> 100 µM (inactive)
same,GI50,[36],> 100 µM (inactive)
same,GI50,[37],17.3 µM (inactive)
same,GI50,[38],> 100 µM (inactive)
same,GI50,[39],> 100 µM (inactive)
same,GI50,[40],29.6 µM (inactive)
same,GI50,[41],29.2 µM (inactive)
same,GI50,[42],13.6 µM (inactive)
same,GI50,[43],> 100 µM (inactive)
same,GI50,[44],> 100 µM (inactive)
same,GI50,[45],> 100 µM (inactive)
same,GI50,[46],47.3 µM (inactive)
same,GI50,[47],34.8 µM (inactive)
same,GI50,[48],4.06 µM (inactive)
same,GI50,[49],> 100 µM (inactive)
same,GI50,[50],> 100 µM (inactive)
same,GI50,[51],39.5 µM (inactive)
same,GI50,[52],38.4 µM (inactive)
same,GI50,[53],> 100 µM (inactive)
same,GI50,[54],> 100 µM (inactive)
same,GI50,[55],> 100 µM (inactive)
same,GI50,[56],> 100 µM (inactive)
same,GI50,[57],> 100 µM (inactive)
same,GI50,[59],> 100 µM (inactive)
